# Experimental data published in ChEMBL document CHEMBL1201862, “PubChem BioAssay data set” (2004).
# Activity calls are given as the source filed them.
# What was measured:
# [1] = molecular target: T1, Intestinal-type alkaline phosphatase (Homo sapiens, UniProt P09923); experiment: human intestinal alkaline phosphatase activators, dose response, biochemical, luminescence, uHTS hits (AID 463120); type: functional
# [2] = molecular target: T1, Intestinal-type alkaline phosphatase; experiment: Dose Response confirmation of uHTS hits from a small molecule inhibitors of human intestinal alkaline phosphatase via a luminescent assay. [Related pubchem assays (depositor defined):AID2544, AID2574]; type: functional
# [3] = inhibition of ADAM10 peptide cleavage – biochemical, FRET peptide substrate, recombinant human ADAM10, selectivity assay for ADAM17 exosite inhibitor project, dose response (AID 743259);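 note: ADAM10 enzyme cleaving a FRET peptide substrate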
# Troponin, cardiac muscle = Troponin, cardiac muscle (Homo sapiens, UniProt P19429+P45379+P63316); experiment: Fluorescence-based biochemical high throughput dose response assay for activators of the calcium sensitivity of cardiac Regulated Thin Filaments (RTF). [Related pubchem assays (depositor defined):AID493008, AID493018, AID504382, AID504383]; type: protein-complex assay
# [4] = molecular target: Disintegrin and metalloproteinase domain-containing protein 17 (Homo sapiens, UniProt P78536); experiment: exosite inhibitors of ADAM17, dose response, biochemical (AID 743260)
# Ion channel NompC = Ion channel NompC (Danio rerio, UniProt Q7T1G6); experiment: Dose response cell-based high-throughput screening assay for agonists of the transient receptor potential channel N1 (TRPN1). [Related pubchem assays (depositor defined):AID1424, AID1448]; type: functional
# [5] = tested on: Streptococcus sp. 'group A'; experiment: Streptococcus pyogenes SK(-)GAS viability under kanamycin – luminescence, BacTiterGlo, confirmation, counter-screen for streptokinase expression inhibitor project, dose response (AID 1900); type: functional, organism-based
# Streptococcus = experiment: GAS UMAA2166 growth inhibition – luminescence, BacTiterGlo, counter-screen for streptokinase expression inhibitor project, dose response (AID 1915); type: functional, organism-based;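 note: potency for reduction of bacterial viability or growth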
# Mucolipin-3 = molecular target: T2, Mucolipin-3 (Homo sapiens, UniProt Q8TDD5); experiment: Fluorescence counterscreen assay for […] agonists: dose response cell-based high-throughput screening assay to identify agonists of the transient receptor potential channel ML3 (TRPML3). [Related pubchem assays: 1424, 1448 ]; type: functional
# T2 sequence (Q8TDD5 whole entry): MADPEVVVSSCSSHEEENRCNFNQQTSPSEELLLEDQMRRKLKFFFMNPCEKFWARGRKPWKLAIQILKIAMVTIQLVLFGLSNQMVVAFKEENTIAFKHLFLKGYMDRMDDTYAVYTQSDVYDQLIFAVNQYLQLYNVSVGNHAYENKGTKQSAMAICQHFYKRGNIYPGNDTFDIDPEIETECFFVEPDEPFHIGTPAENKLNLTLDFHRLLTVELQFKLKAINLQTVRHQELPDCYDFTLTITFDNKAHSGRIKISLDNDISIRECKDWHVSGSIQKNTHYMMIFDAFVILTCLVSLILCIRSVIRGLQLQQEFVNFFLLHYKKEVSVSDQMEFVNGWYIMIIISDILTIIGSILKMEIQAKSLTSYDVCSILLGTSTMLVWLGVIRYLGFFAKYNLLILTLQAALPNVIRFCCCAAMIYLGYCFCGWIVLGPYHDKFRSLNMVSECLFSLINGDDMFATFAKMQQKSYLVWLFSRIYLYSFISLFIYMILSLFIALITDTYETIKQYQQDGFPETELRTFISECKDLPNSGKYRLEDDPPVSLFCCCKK
# [6] = molecular target: 1-phosphatidylinositol 4,5-bisphosphate phosphodiesterase gamma-1 (Homo sapiens, UniProt P19174); experiment: Counterscreen for inhibitors of phospholipase C isozymes (PLC-B3): Fluorescence-based biochemical high throughput dose response assay to identify inhibitors of phospholipase C isozymes (PLC-gamma1).
# Cysteine protease ATG4B = molecular target: T3, Cysteine protease ATG4B (Homo sapiens, UniProt Q9Y4P1); type: functional;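 note: Fluorescence-based dose-response confirmation assay measuring inhibition of ATG4B activity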
# T3 sequence (Q9Y4P1 whole entry): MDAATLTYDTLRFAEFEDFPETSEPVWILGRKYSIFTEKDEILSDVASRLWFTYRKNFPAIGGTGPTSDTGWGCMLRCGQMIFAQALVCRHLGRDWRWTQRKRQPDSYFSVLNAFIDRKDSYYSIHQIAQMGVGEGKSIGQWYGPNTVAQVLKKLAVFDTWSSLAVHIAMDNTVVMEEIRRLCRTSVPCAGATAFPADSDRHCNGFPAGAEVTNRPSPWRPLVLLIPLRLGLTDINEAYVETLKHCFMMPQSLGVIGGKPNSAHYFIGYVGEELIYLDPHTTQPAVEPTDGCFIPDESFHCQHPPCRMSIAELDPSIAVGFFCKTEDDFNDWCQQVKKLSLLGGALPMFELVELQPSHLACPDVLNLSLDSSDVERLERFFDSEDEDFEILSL
# Prothrombin = Prothrombin (Bos taurus, UniProt P00735); experiment: thrombin protease inhibitors – biochemical, fluorescence polarization, uHTS hits, dose response (AID 602369); type: functional
# [7] = molecular target: 26S proteasome non-ATPase regulatory subunit 14 (Homo sapiens, UniProt O00487); experiment: inhibition of proteasome subunit RPN11 – biochemical, fluorescence polarization, uHTS hits, confirmation (AID 602368); type: functional
# [8] = molecular target: T1, Intestinal-type alkaline phosphatase; experiment: activation of human intestinal alkaline phosphatase – biochemical, dose response (AID 488873); type: functional
# Large T antigen = Large T antigen (Simian virus 40, UniProt P03070); type: functional, Betapolyomavirus macacae;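 note: Confirmatory-stage PubChem screen for compounds that inhibit SV40 T antigen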
# [9] = molecular target: 72 kDa type IV collagenase (Homo sapiens, UniProt P08253); experiment: Dose Response validation of uHTS RPN11 inhibitor hits using a MMP-2 Fluorescence assay.; type: functional
# [10] = molecular target: T4, Intestinal-type alkaline phosphatase (Mus musculus, UniProt P24822); experiment: PubChem AID 488785; type: functional
# [11] = molecular target: T5, Alkaline phosphatase, tissue-nonspecific isozyme (Homo sapiens, UniProt P05186); experiment: TNAP enzyme inhibition by screening hits, dose response, selectivity assay for mouse IAP inhibitor project, biochemical, human TNAP, uHTS hits (AID 488906); type: functional
# T5 sequence (P05186 whole entry): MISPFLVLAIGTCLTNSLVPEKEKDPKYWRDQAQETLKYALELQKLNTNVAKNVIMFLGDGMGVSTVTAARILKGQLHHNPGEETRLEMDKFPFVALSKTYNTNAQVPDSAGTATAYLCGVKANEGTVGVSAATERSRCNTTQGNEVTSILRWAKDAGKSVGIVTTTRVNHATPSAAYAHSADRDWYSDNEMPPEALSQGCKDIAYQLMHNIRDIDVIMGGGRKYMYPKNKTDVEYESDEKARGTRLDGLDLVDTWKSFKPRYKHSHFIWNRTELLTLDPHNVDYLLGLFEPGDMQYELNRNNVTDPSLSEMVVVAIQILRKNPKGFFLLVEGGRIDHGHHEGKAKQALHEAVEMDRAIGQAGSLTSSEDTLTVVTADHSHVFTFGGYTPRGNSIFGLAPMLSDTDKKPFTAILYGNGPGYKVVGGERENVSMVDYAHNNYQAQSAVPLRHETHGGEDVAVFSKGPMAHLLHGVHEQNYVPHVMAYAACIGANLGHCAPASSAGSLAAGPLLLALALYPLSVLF
# ORF 73 = molecular target: T6, ORF 73 (Human herpesvirus 8, UniProt O40947); experiment: KSHV LANA DNA-binding disruption – biochemical, fluorescence polarization, cherry-picked samples, dose response (AID 504725); design: species or system Human gammaherpesvirus 8;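 note: fluorescence polarization of a labeled DNA duplex reporting LANA DNA binding; potency is for inhibitors that block LANA binding to the DNA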
# T6 sequence (O40947 whole entry): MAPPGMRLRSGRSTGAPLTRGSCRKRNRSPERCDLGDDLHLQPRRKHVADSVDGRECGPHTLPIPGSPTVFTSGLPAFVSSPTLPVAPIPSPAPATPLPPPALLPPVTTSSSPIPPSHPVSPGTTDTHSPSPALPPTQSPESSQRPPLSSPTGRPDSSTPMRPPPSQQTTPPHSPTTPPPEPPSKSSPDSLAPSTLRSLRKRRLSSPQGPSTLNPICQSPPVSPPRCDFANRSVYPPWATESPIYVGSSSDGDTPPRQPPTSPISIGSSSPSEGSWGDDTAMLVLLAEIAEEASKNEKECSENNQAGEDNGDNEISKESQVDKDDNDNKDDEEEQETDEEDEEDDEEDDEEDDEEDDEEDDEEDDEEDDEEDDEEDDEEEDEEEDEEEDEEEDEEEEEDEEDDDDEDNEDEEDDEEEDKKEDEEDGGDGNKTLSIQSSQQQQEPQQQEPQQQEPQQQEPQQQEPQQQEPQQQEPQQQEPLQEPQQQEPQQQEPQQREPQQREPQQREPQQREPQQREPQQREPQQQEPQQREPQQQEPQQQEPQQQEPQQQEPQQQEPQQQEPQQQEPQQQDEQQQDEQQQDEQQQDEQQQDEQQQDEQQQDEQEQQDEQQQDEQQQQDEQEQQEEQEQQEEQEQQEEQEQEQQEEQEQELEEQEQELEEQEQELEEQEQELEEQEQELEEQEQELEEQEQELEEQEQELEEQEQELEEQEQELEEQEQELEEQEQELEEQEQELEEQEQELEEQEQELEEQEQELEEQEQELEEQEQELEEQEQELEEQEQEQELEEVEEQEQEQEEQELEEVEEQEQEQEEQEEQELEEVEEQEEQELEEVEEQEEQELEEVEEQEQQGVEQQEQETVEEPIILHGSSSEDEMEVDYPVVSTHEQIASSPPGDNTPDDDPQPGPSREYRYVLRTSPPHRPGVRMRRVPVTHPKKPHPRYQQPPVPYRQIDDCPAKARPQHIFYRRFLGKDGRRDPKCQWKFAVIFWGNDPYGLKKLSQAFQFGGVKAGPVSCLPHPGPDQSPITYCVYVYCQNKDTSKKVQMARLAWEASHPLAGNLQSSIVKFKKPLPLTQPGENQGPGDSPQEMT
# Phospholipase A2 = Phospholipase A2 (Homo sapiens, UniProt P04054); type: functional;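 note: confirmatory dose-response counterscreen on phospholipase A2, testing hits that came from an ultra-high-throughput screen for ATG4B inhibitors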
# [12] = molecular target: 1-phosphatidylinositol 4,5-bisphosphate phosphodiesterase beta-3 (Homo sapiens, UniProt Q01970); experiment: Fluorescence-based biochemical high throughput dose response assay to identify inhibitors of phospholipase C isozymes (PLC-B3).
# [13] = molecular target: Voltage-dependent T-type calcium channel subunit alpha-1H (Homo sapiens, UniProt O95180); experiment: human CACNA1H calcium influx blockade – cell-based, synthetic library set 2, HEK293 HH8, Fluo-4, SAR follow-up (AID 493023); type: functional
# [14] = molecular target: T5, Alkaline phosphatase, tissue-nonspecific isozyme; experiment: activation of tissue-nonspecific alkaline phosphatase – biochemical, TNAP isozyme, mouse IAP uHTS hits, selectivity assay for mouse IAP activator project, dose response (AID 488880); type: functional
# [15] = molecular target: T4, Intestinal-type alkaline phosphatase; experiment: mouse intestinal alkaline phosphatase activators, dose response, biochemical, luminescence, uHTS hits (AID 488783); type: functional
# T1 sequence (P09923 whole entry): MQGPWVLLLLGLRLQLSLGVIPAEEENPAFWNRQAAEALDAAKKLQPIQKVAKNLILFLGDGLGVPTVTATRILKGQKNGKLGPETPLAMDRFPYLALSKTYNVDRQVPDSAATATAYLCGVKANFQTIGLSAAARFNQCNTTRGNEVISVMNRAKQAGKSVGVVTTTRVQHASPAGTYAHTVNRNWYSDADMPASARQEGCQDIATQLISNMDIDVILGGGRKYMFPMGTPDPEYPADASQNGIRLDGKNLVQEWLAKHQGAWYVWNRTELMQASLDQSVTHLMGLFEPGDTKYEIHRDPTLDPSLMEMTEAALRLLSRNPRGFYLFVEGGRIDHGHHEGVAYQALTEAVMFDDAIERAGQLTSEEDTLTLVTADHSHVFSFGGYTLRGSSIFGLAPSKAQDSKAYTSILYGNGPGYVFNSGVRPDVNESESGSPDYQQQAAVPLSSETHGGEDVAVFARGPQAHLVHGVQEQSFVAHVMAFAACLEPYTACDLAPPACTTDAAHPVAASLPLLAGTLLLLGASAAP
# T4 sequence (P24822 whole entry): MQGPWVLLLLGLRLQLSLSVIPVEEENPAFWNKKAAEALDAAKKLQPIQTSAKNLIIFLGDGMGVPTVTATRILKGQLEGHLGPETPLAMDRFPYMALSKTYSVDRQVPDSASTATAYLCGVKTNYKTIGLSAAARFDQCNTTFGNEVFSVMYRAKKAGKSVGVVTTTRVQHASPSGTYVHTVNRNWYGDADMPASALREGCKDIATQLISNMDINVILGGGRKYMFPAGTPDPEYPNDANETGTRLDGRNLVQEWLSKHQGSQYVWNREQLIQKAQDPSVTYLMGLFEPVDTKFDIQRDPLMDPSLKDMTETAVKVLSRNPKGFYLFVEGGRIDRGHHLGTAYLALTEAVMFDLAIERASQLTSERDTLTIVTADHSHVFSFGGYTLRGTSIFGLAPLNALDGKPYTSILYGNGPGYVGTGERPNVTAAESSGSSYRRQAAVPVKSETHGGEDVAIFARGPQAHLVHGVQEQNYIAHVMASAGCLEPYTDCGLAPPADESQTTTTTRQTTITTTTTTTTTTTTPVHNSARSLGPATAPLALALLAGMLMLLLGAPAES
# Chain of Voltage-dependent T-type calcium channel subunit alpha-1H (O95180 whole entry): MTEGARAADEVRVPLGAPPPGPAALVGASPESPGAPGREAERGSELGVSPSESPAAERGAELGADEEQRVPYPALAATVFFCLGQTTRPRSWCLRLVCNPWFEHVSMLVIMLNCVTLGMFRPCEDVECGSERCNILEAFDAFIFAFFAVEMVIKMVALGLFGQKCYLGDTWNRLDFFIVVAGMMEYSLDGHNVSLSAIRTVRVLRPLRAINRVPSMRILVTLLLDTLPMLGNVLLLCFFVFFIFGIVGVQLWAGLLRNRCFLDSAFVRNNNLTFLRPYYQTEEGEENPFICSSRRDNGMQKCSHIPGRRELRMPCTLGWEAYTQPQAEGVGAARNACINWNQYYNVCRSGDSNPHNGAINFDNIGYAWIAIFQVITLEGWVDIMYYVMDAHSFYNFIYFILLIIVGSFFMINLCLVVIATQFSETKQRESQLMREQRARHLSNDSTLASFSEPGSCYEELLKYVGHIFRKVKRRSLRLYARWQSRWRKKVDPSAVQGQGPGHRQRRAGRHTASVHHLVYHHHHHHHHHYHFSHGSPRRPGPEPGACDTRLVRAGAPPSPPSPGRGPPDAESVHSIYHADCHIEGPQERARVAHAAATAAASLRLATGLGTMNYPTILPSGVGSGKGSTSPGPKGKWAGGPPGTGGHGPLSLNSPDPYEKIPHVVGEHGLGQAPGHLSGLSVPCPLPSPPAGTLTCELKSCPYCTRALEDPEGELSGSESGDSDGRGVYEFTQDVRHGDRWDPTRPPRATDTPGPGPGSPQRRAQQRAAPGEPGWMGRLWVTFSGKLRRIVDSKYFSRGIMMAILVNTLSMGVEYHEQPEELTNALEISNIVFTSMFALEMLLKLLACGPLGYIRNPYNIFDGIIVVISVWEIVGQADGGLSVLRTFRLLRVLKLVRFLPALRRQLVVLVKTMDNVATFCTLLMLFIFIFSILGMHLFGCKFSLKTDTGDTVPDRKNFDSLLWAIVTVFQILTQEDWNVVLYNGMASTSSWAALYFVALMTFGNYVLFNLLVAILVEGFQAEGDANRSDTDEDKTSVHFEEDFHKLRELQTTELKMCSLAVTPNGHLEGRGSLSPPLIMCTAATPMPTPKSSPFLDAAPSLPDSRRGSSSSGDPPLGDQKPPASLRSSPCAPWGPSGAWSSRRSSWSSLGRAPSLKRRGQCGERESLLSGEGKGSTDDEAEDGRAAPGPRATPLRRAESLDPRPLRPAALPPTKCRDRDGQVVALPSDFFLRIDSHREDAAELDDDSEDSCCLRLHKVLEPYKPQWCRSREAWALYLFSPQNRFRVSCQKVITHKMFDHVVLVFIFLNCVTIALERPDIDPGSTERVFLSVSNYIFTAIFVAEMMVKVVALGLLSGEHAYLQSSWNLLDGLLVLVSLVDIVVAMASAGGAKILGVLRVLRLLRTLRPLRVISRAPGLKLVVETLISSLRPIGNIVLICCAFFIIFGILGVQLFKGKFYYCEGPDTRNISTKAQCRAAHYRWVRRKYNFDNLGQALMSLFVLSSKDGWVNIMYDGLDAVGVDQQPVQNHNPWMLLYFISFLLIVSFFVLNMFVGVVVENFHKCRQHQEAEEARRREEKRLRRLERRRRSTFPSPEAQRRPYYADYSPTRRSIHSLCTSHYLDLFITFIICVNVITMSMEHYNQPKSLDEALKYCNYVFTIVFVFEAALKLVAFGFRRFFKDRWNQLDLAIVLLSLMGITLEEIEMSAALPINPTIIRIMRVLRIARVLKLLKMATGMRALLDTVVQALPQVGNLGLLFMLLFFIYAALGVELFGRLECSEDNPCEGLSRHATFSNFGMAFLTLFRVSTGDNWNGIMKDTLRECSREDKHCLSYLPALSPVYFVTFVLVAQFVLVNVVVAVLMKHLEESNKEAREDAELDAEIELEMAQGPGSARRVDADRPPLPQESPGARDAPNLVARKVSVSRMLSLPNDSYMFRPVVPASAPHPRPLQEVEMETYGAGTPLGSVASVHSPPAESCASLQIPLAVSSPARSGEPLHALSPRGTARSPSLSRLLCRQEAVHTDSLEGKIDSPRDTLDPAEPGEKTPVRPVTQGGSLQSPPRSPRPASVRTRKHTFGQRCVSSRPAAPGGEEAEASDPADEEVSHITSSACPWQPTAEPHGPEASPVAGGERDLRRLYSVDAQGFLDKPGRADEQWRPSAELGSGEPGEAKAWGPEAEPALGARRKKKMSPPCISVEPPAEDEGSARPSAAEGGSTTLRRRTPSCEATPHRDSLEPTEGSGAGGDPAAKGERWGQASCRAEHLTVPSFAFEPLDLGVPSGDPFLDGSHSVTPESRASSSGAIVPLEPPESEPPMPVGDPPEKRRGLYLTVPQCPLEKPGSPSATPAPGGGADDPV
# Chain of 72 kDa type IV collagenase (P08253 whole entry): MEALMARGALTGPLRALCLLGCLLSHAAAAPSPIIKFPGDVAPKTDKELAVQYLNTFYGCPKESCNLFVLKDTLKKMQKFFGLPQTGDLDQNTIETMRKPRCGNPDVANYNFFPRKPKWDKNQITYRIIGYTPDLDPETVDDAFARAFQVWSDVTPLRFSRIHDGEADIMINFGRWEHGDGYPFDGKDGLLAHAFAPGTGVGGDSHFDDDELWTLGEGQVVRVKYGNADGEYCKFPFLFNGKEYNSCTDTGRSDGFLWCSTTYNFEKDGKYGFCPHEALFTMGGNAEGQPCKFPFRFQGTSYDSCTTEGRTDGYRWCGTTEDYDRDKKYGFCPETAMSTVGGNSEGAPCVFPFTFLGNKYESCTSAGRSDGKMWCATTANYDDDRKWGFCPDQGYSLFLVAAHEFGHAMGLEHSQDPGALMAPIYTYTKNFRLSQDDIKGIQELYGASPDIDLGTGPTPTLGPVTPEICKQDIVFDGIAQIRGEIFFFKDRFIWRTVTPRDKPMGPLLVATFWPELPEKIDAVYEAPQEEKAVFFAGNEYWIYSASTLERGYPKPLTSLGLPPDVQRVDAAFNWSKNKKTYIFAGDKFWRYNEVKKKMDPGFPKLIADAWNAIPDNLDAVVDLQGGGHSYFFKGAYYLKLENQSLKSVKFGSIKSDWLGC
# Chain of Large T antigen (P03070 whole entry): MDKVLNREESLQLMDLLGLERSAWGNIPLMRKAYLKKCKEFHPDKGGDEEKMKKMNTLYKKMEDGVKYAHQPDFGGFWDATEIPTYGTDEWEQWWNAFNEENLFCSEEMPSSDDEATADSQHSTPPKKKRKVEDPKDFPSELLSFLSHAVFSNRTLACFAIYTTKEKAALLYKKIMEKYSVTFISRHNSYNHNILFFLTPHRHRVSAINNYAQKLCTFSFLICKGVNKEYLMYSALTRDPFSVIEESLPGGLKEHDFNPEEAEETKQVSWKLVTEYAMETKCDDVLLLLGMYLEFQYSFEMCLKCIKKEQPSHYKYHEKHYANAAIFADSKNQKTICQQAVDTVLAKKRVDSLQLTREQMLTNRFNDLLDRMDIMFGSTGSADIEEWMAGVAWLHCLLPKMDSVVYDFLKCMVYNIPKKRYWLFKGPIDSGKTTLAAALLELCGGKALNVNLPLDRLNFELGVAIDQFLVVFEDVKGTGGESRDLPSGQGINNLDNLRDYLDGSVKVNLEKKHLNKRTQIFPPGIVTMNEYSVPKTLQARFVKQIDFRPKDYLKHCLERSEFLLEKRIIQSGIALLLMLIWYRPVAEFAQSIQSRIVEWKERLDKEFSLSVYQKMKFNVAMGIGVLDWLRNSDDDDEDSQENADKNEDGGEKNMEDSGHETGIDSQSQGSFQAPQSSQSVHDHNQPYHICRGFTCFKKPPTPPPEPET
# Chain of Phospholipase A2 (P04054 whole entry): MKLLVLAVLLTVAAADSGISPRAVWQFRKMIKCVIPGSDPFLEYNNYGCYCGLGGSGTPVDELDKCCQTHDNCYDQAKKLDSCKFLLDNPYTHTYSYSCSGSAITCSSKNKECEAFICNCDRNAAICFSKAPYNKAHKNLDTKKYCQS
smiles,measurement,setting,value
CC(C)CCNC(=O)C1CCN(C(=O)N(C)C)CC1,EC50,[1],> 100 µM (inactive)
same,IC50,[2],> 100 µM (inactive)
CCC(C(=O)O)N1C(=O)/C(=C/c2cccn2C)SC1=S (stereo unspecified),IC50,[3],12.5 µM (inactive)
same,EC50,"Troponin, cardiac muscle",14.4 µM (inactive)
same,IC50,[4],> 23.2 µM (inactive)
CCOc1cc(/C=C(\C#N)c2nc(-c3cccs3)c(NC(C)=O)s2)ccc1O,EC50,Ion channel NompC,13.4 µM (inactive)
same,EC50,[5],0.628 µM (active)
same,EC50,Streptococcus,2.02 µM (active)
same,EC50,Mucolipin-3,> 29.9 µM (not active)
O=C(CN1C(=O)/C(=C/c2ccco2)SC1=S)Nc1ccc(C(=O)O)c(O)c1,IC50,[6],> 122 µM (inactive)
same,IC50,Cysteine protease ATG4B,6.89 µM (active)
same,IC50,Prothrombin,45.8 µM (active)
same,IC50,[7],19.4 µM (active)
same,EC50,[8],> 100 µM (inactive)
same,IC50,Large T antigen,76.9 µM (active)
same,IC50,[9],2.32 µM (active)
same,IC50,[10],9.42 µM (active)
same,IC50,[11],> 100 µM (inactive)
same,AC50,ORF 73,76.1 µM (active)
same,IC50,Phospholipase A2,16.8 µM (active)
same,IC50,[12],> 122 µM (inactive)
O=C(N[C@H]1CCCN(Cc2ccccc2)C1)c1ccc(Cl)cc1Cl,EC50,[13],10 µM (active)
CC(C)(C)CCN1CCC[C@H](NC(=O)c2cc(Cl)cc(Cl)c2)C1,EC50,[13],10 µM (active)
COc1ccc(/N=C2\SC(C(N)=O)CC(=O)N2CCc2ccc(OC)c(OC)c2)cc1 (stereo unspecified),EC50,[8],59.6 µM (active)
same,EC50,[14],48.9 µM (active)
same,EC50,[15],13.3 µM (active)
